Results: patent publication US8158647B2, “Substituted pyrrolopyridines and pyrazolopyridines as kinase modulators” (SGX Pharmaceuticals, Inc., priority 2007, dated 2012)

What was measured:
[1] = target: T1, purified and unphosphorylated T315I Abl kinase domain (ABL_T315I_0P) (Mus musculus, UniProt P00520, T315I); assay: c-Abl T315I (unphosphorylated kinase domain) pyruvate kinase/lactate dehydrogenase coupled enzyme assay; format: biochemical; conditions: 10 μM ATP
T1 construct: The c-Abl T3151 KD (kinase domain) was purified as follows; Met-Ser-Leu (vector-derived residues) (N); made in house; host or cells: E. coli BL21(DE3) strains (Codon+RIL, or pSA0145 for the lambda phosphatase co-expression plasmid)
T1 sequence (P00520 242-493 T315I limits assumed): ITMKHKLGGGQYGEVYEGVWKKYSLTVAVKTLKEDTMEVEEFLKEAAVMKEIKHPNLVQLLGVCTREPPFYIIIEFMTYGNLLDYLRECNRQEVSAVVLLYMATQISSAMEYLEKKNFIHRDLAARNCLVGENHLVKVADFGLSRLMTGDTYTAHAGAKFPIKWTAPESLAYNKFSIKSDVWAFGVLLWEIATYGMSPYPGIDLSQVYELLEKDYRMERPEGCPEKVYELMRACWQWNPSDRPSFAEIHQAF
Description: Although the first of these examples uses the kinase domain of a mutant form of Abl T315I (“Abl T315I KD”), the kinase assays may use various forms of mutant and wild type enzymes, including, for example, the entire protein, the kinase domain, or a portion thereof (e.g. Abl Y393F). The kinases used in the assays may also be of varying phosphorylation states. In the c-Abl example, a mutant kinase at a zero phosphorylation state was used.
c-Abl Pyruvate Kinase/Lactate Dehydrogenase Coupled Enzyme Assay
In the c-Abl Pyruvate Kinase (PK)/Lactate Dehydrogenase (LDH) Coupled Assay the protein kinase dependant phosphorylation of a substrate peptide was coupled to the oxidation of NADH. The oxidation of NADH to NAD+ was detected by monitoring a decrease in absorbance at 340 nm.
Materials: Abl substrate peptide=EAIYAAPFAKKK-OH (SEQ ID NO: 1) (Biopeptide, San Diego, Calif.); […]NADH (Sigma Cat#N-8129, FW=709.4); 2M MgCl2; 1M HEPES buffer, pH 7.5; Phosphoenolpyruvate (PEP) (Sigma Cat#P-7002, FW=234); Lactate dehydrogenase (LDH) (Worthington Biochemical Cat#2756); Pyruvate Kinase (PK) (Sigma Cat#P-9136); ATP (Sigma Cat#A-3377, FW=551); Greiner 384-well UV star plate; and purified and unphosphorylated T3151 Abl kinase domain.
Stock Solutions: 10 mM NADH (7.09 mg/ml in miliQH2O) made fresh daily; 10 mM Abl substrate peptide (13.4 mg/ml in miliQH2O) stored at −20° C.; 100 mM HEPES buffer, pH 7.5 (5 ml 1M stock+45 ml miliQH2O); 100mM MgCl2 (5 ml 2M MgCl2+95 ml dH2O); 100 mM PEP (23.4 mg/ml in dH2O) stored at −20° C.; 10mM ATP (5.51 mg/ml in dH2O) stored at −20° C. (diluted 50 μl into total of 10 ml miliQH2O daily=50 μM ATP working stock); 1000 U/ml PK (U/mg varies with lot) flash-frozen under liquid N2 and stored at −80° C.; and 1000 U/ml LDH (U/mg varies with lot) flash-frozen under liquid N2 and stored at −80° C.
Standard Assay Setup for 384-well format (50 μl reaction): 300 μM NADH; 10 mM MgCl2; 2 mM PEP; 45 U/ml PK; 60 U/ml LDH; 200 μM Abl substrate peptide; 2.5 μl test compound (in DMSO); 2 μg/ml Abl kinase domain; 10 μM ATP; 100 mM HEPES buffer. Positive controls contained DMSO with no test compound. Negative controls contained 5 μl of 0.5M EDTA (50 mM in the assay). The dephosphorylated form of the c-Abl T315I mutant was used in the biochemical screening assays. The kinase reaction was initiated at time t=0 by the addition of ATP.
Activity was measured by following the time-dependent loss of NADH by absorbance spectroscopy at 340 nm. The linear portion of the resulting progress curve was then analyzed by linear regression to get the activity in absorbance units/time, reported as the slope of that best fit line (moles/unit time can be calculated from using molar extinction coefficient for NADH at 340 nm, 6250M^−1 cm^−1).
Screening data was evaluated using the equation: Z′=1-[3*(σ++σ−)/|μ+−μ−|] (Zhang, et al., 1999 J Biomol Screening 4(2) 67-73), where μ denotes the mean and σ the standard deviation. The subscript designates positive or negative controls. The Z′ score for a robust screening assay should be ≧0.50. The typical threshold=μ+−3*σ+−. Any value that falls below the threshold was designated a “hit”.
Dose response was analyzed using the equation: y=min+{(max−min)/(1+10^[compound]−logIC50)}, where y is the observed initial slope, max=the slope in the absence of inhibitor, min=the slope at infinite inhibitor, and the IC50 is the [compound] that corresponds to ½ the total observed amplitude (Amplitude=max−min).
To measure modulation, activation, or inhibition of Abl KD, a test compound was added to the assay at a range of concentrations. Inhibitors may inhibit Abl KD activity at an IC50 in the micromolar range, the nanomolar range, or, for example, in the subnanomolar range.
An open-reading frame for c-Abl was amplified from a Mus musculus (mouse) cDNA library prepared from freshly harvested mouse liver using a commercially available kit (Invitrogen) by PCR using the following primers: […]
The c-Abl T3151 KD (kinase domain) was purified as follows. […]

ABL P210WT BAF3 cells = target: T2, ABL P210WT BAF3 cells (Homo sapiens, UniProt P00519); assay: 96-well XTT cell survival assay, BaF3 ABL P210WT; format: cell-based; conditions: ABL P210 WT, 72 hours, read-out: CELL BIO ABL P210WT BAF3 XTT (IC50)
T2 construct: ABL P210WT BAF3; fused on or other part: P11274 (Breakpoint cluster region protein)
Procedure: (§1) MV4-11 and THP cells were maintained in Iscove's Modified Dulbecco's Medium supplemented with 10% fetal bovine serum (FBS) and penicillin/streptomycin, Ba/F3 cells were maintained in RPMI 1640 supplemented with 10% FBS, penicillin/streptomycin and 5 ng/ml recombinant mouse IL-3.
(§2) Compounds were tested in the following assays in duplicate.
(§3) 96-well XTT assay: Cells (e.g. BaF3 315I, M3511, or E255K cells) were grown in growth media containing various concentrations of compounds (duplicates) on a 96-well plate for 72 hours at 37° C. The starting cell number was 5000-8000 cells per well and volume was 120 μl. At the end of the 72-hour incubation, 40 μl of XTT labeling mixture (50:1 solution of sodium 3′-[1-(phenylamino-carbonyl)-3,4-tetrazolium]-bis(4-methoxy-6-nitro) benzene sulfonic acid hydrate and Electron-coupling reagent: PMS (N-methyl dibenzopyrazine methyl sulfate) were added to each well of the plate. After an additional 2-6 hours of incubation at 37° C., the absorbance reading at 405 nm with background correction at 650 nm was measured with a spectrophotometer.

ABL T315I BAF3 cells = target: T3, ABL T315I BAF3 cells (Homo sapiens, UniProt P00519, T315I, cells depend on it); assay: 96-well XTT cell survival assay, BaF3 ABL T315I; format: cell-based; conditions: 72 hours, read-out: CELL BIO ABL T315I BAF3 XTT (IC50)
T3 construct: ABL T315I BAF3; fused on or other part: P11274 (Breakpoint cluster region protein)
Procedure: as §1, §2, §3

| Compound | ABL_T315I_0P (IC50) [1] | GI50 (ABL P210WT BAF3 cells) | GI50 (ABL T315I BAF3 cells) | IC50 [1] |
| --- | --- | --- | --- | --- |
| COc1ccccc1-c1c[nH]c2ncc(-c3cncc(CC(=O)N(C)C)c3)c(Cl)c12 [2-{5-[4-Chloro-3-(2-methoxy-phenyl)-1H-pyrrolo[2,3-b]pyridin-5-yl]-pyridin-3-yl}-N,N-dimethyl-acetamide] | D (<0.01 μM) | 10 to 100 nM | 10 to 100 nM | – |
| COc1cc(Cl)c(F)cc1-c1c[nH]c2ncc(-c3cnc(N)c(C(=O)N(C)C)c3)cc12 | – | < 10 nM | 10 to 100 nM | < 10 nM |
| COc1ccccc1-c1c[nH]c2ncc(-c3cncc(C(O)C(=O)N(C)C)c3)c(O)c12 (stereo not drawn) [2-Hydroxy-2-{5-[4-hydroxy-3-(2-methoxy-phenyl)-1H-pyrrolo[2,3-b]pyridin-5-yl]-pyridin-3-yl}-N,N-dimethyl-acetamide] | C (0.1-0.01 μM) | > 1000 nM | > 1000 nM | – |
| CN(C)C(=O)Cc1cncc(-c2cnc3[nH]cc(-c4ccccc4)c3c2Cl)c1 [2-[5-(4-Chloro-3-phenyl-1H-pyrrolo[2,3-b]pyridin-5-yl)-pyridin-3-yl]-N,N-dimethyl-acetamide] | D (<0.01 μM) | > 1000 nM | > 1000 nM | – |
| COc1cc(Cl)ccc1-c1c[nH]c2ncc(-c3cnc(N)c(C(=O)N(C)C)c3)c(Cl)c12 [2-Amino-5-[4-chloro-3-(4-chloro-2-methoxy-phenyl)-1H-pyrrolo[2,3-b]pyridin-5-yl]-N,N-dimethyl-nicotinamide] | D (<0.01 μM) | 10 to 100 nM | 10 to 100 nM | – |
| CN(C)C(=O)c1cncc(-c2cnc3[nH]nc(-c4ccccc4)c3c2Cl)c1 [5-(4-Chloro-3-phenyl-1H-pyrazolo[3,4-b]pyridin-5-yl)-N,N-dimethyl-nicotinamide] | B (1.0-0.1 μM) | > 1000 nM | > 1000 nM | – |
| CN(C)C(=O)c1cc(-c2cnc3[nH]cc(-c4cc(F)ccc4Cl)c3c2Cl)cnc1N [2-Amino-5-[4-chloro-3-(2-chloro-5-fluoro-phenyl)-1H-pyrrolo[2,3-b]pyridin-5-yl]-N,N-dimethyl-nicotinamide] | D (<0.01 μM) | 100 to 1000 nM | 100 to 1000 nM | – |
| CN(C)C(=O)c1cncc(-c2cnc3[nH]cc(-c4ccccc4F)c3c2Cl)c1 | D (<0.01 μM) | 100 to 1000 nM | 100 to 1000 nM | – |

Now from value to molecule, other results behind:

| ABL_T315I_0P (IC50) [1] | Compound | GI50 (ABL P210WT BAF3 cells) | GI50 (ABL T315I BAF3 cells) | IC50 [1] |
| --- | --- | --- | --- | --- |
| D (<0.01 μM) | Nc1ncc(-c2cnc3[nH]cc(-c4cccc(F)c4)c3c2Cl)cc1C(=O)N1CC(O)C1 [{2-Amino-5-[4-chloro-3-(3-fluoro-phenyl)-1H-pyrrolo[2,3-b]pyridin-5-yl]-pyridin-3-yl}-(3-hydroxy-azetidin-1-yl)-methanone] | 100 to 1000 nM | 100 to 1000 nM | – |
| D (<0.01 μM) | CN(C)C(=O)c1cncc(-c2cnc3[nH]cc(-c4ccccc4F)c3c2Cl)n1 [6-[4-Chloro-3-(2-fluoro-phenyl)-1H-pyrrolo[2,3-b]pyridin-5-y] [6-[4-Chloro-3-(2-fluoro-phenyl)-1H-pyrrolo[2,3-b]pyridin-5-yl]-pyrazine-2-carboxylic acid dimethylamide] | > 1000 nM | > 1000 nM | – |
| D (<0.01 μM) | OC(c1cncc(-c2cnc3[nH]cc(-c4cccc(F)c4F)c3c2Cl)c1)c1ncccc1F (stereo not drawn) [{5-[4-Chloro-3-(2,3-difluoro-phenyl)-1H-pyrrolo[2,3-b]pyridin-5-yl]-pyridin-3-yl}-(3-fluoro-pyridin-2-yl)-methanol] | 100 to 1000 nM | 100 to 1000 nM | – |
| D (<0.01 μM) | OC(c1cncc(-c2cnc3[nH]cc(-c4ccccc4F)c3c2Cl)c1)c1ncco1 (stereo not drawn) [{5-[4-Chloro-3-(2-fluoro-phenyl)-1H-pyrrolo[2,3-b]pyridin-5-yl]-pyridin-3-yl}-oxazol-2-yl-methanol] | 100 to 1000 nM | 100 to 1000 nM | – |
| D (<0.01 μM) | Nc1ncc(-c2cnc3[nH]cc(-c4cc(F)ccc4F)c3c2Cl)cc1C(=O)N1CCCC1CO (stereo not drawn) [{2-Amino-5-[4-chloro-3-(2,5-difluoro-phenyl)-1H-pyrrolo[2,3-b]pyridin-5-yl]-pyridin-3-yl}-(2-hydroxymethyl-pyrrolidin-1-yl)-methanone] | 100 to 1000 nM | 100 to 1000 nM | – |
| D (<0.01 μM) | OC(c1cncc(-c2cnc3[nH]cc(-c4ccccc4)c3c2Cl)c1)c1ncccc1F (stereo not drawn) [[5-(4-Chloro-3-phenyl-1H-pyrrolo[2,3-b]pyridin-5-yl)-pyridin-3-yl]-(3-fluoro-pyridin-2-yl)-methanol] | 100 to 1000 nM | 100 to 1000 nM | – |
| D (<0.01 μM) | CSc1ccccc1-c1c[nH]c2ncc(-c3cncc(C(=O)N(C)C)c3)c(Cl)c12 [5-[4-Chloro-3-(2-methylsulfanyl-phenyl)-1H-pyrrolo[2,3-b]pyridin-5-yl]-N,N-dimethyl-nicotinamide] | > 1000 nM | > 1000 nM | – |
| C (0.1-0.01 μM) | CNC(=O)c1cncc(-c2cnc3[nH]cc(-c4ccccc4F)c3c2Cl)c1 [5-[4-Chloro-3-(2-fluoro-phenyl)-1H-pyrrolo[2,3-b]pyridin-5-yl]-N-methyl-nicotinamide] | > 1000 nM | > 1000 nM | – |
